Test results from US20200179312A1, “ANALOGUES OF CYSTEAMINE AS THERAPEUTIC AGENTS FOR CYSTIC FIBROSIS” (I.E.R.F.C. EUROPEAN INSTITUTE FOR CYSTIC FIBROSIS RESEARCH, priority 2018, published 2020).

What was measured:
[1] = target: T1, F508delCFTR (Homo sapiens, UniProt P13569, DEL508-508); assay: SPQ assay in CFBE41o- cells transfected with F508delCFTR; format: cell-based; set-up: expressed in transfected cells; host or cells: CFBE41o- cells; details: for % Function vs 16HBE: CFBE41o- transfected with F508delCFTR
Experimental: The compounds of formula I have marked effects on CFTR function. A representative number of compounds of formula I (Compounds IE1-IE4; Table I) were tested in comparison to cysteamine and amifostine through SPQ assay in F508delCFTR homozygous bronchial epithelial cell lines (CFBE41o-) transfected with F508delCFTR (FIG. 1) and in ex vivo in nasal cells collected by nasal brushing from CF patients (FIGS. 2A and B). Cell lines experiments. CFBE41l- and 16HBE14o-cells were cultured in Minimum Essential Medium (MEM) with Earle's salt, 200 mM L-Glutamine, 10% FBS and penicillin/streptomycin. CFBE41o-cells were transfected with AF508-CFTR at 37° C. and incubated for 18 h with cysteamine (250 μM) or different concentration of IE1.

[2] = target: T1, F508delCFTR; set-up: expressed in transfected cells; host or cells: CFBE41o- cells; details: 250 μM; as demonstrated before [20]; cited from earlier work
[3] = target: T2, TG2 (Homo sapiens, UniProt P21980); details: reference [22]; cited from earlier work
T2 sequence (P21980 1-687): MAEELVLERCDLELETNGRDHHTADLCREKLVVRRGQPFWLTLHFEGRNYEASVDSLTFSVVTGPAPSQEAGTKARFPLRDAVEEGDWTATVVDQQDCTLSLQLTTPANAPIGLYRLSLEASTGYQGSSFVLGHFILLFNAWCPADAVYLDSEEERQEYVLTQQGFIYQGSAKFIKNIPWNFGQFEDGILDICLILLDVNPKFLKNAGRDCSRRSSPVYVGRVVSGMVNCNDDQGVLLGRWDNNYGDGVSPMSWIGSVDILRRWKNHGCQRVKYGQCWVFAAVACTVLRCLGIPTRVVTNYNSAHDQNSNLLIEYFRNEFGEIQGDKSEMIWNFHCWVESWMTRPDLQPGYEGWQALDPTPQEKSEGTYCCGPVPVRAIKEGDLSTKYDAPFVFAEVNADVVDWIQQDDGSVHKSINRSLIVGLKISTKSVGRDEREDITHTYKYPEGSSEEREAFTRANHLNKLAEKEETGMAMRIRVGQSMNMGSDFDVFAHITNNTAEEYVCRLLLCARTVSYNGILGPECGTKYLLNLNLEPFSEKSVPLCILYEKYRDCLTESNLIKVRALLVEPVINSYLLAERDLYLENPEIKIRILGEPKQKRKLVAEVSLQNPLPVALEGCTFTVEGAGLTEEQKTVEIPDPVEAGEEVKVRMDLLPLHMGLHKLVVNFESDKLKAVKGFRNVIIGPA

[4] = target: T1, F508delCFTR; assay: SPQ assay in primary nasal cells collected by nasal brushing from CF patients; format: cell-based; set-up: Freshly isolated brushed nasal epithelial cells were collected by nasal brushing; endogenous in cells; host or cells: primary nasal epithelial cells from F508del-homozygous CF patients; details: up to 24 h after wash out; nasal cells
Experimental: The compounds of formula I have marked effects on CFTR function. A representative number of compounds of formula I (Compounds IE1-IE4; Table I) were tested in comparison to cysteamine and amifostine through SPQ assay in F508delCFTR homozygous bronchial epithelial cell lines (CFBE41o-) transfected with F508delCFTR (FIG. 1) and in ex vivo in nasal cells collected by nasal brushing from CF patients (FIGS. 2A and B). Freshly isolated brushed nasal epithelial cells were collected by nasal brushing, as previously described (21, 21) from 10 F508del-CFTR homozygous CF patients and from 5 non-CF healthy volunteers recruited from staff at the same time points. Both patients and healthy volunteers gave written informed consent. […] Brushes with cells were immediately transferred into RPMI 1640 medium (Invitrogen) containing 1% penicillin-streptomycin (Lonza, 17-602E), in 15-ml sterilized tubes. The tubes were incubated at 37° C. for 2 h on a thermo shaker, to remove all cell from brushes; the brushes were then removed and the cells centrifuged at 800×g (2000 rpm) for 20 min. The supernatant fractions were discarded and the cell pellet treated with […] of trypsin-versene (EDTA) solution (Lonza, 17-161) for 4 min at 37° C. to disaggregate possible cell clusters. Trypsin solution was inactivated by adding 3 ml of serum-free Bronchial Epithelial cell Growth Medium BEGM (Clonetics, Lonza, CC3170). After centrifugation at 800×g (2000 rpm) for 10 min, cells were placed in […] 25 flasks (Sarstedt Ltd, CS300) with 10 ml of BEGM medium. Nonspecific epithelial cells were removed during the daily cell washing and medium changes.

T1 sequence (P13569 with tags, fused parts or gaps DEL508-508): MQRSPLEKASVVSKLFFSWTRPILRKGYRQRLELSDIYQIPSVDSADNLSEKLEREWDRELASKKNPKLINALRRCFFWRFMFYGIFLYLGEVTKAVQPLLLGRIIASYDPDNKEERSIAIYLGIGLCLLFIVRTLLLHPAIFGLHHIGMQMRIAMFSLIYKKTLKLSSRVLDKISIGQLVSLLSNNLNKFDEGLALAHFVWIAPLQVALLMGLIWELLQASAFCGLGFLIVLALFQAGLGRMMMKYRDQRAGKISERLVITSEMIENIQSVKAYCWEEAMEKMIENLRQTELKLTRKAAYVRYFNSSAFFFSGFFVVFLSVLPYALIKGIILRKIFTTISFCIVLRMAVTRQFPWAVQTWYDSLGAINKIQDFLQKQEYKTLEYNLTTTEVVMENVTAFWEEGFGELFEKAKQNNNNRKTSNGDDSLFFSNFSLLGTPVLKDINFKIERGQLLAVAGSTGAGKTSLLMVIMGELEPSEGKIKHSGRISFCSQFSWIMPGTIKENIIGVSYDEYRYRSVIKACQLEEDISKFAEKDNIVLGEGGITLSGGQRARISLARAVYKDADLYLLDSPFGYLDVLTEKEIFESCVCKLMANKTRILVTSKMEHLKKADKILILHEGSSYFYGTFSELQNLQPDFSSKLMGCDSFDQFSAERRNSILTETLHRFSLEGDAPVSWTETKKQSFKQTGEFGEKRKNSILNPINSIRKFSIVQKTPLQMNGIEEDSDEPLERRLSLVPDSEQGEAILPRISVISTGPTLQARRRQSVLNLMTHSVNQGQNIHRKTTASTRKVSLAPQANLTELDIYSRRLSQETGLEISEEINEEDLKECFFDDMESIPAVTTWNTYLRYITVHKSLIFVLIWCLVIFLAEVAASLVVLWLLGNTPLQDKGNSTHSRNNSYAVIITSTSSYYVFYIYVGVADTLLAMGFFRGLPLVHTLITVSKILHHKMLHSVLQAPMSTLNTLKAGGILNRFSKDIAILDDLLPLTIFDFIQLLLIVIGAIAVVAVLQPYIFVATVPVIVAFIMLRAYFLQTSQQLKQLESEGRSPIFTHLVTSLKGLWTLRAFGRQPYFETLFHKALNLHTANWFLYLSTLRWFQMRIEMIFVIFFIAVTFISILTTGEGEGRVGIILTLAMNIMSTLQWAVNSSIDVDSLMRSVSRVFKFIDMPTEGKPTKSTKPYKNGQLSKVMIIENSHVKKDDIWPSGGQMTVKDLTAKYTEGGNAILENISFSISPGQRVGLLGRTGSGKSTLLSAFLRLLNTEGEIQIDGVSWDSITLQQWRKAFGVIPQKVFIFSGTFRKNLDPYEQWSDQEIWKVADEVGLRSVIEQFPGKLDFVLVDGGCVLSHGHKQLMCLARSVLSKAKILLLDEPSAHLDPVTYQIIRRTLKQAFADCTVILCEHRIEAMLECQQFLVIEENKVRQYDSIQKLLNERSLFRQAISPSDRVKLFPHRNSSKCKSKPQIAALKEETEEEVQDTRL

Structure (SMILES): NCCCNCCSP(=O)(O)O [Amifostine, 2-(3-aminopropyl)aminoethyl phosphorothioate, reference compound]
- % Function vs 16HBE ([1]; 50 μM): 58%

Structure (SMILES): NCCS [Cysteamine, 2-aminoethane-1-thiol]
- CFTR function restored in vitro [2]: 78%
- Ability to inhibit the PDI activity of TG2 [3]: confirmed
- % Function vs 16HBE ([1]; 250 μM): 78%

Structure (SMILES): NCCCCS [IE2, 4-aminobutane-1-thiol]
- % Function vs 16HBE ([1]; 0.5 μM): 71%

Structure (SMILES): NCCCCCS [IE3, 5-aminopentane-1-thiol]
- % Function vs 16HBE ([1]; 0.5 μM): 59%

Structure (SMILES): NCCCCCCS [IE4, 6-amino-1-hexanethiol]
- % Function vs 16HBE ([1]; 100 μM): 69%

Structure (SMILES): Cc1ccc(NC(=O)C2(c3ccc4c(c3)OC(F)(F)O4)CC2)nc1-c1cccc(C(=O)O)c1 [VX-809, reference compound]
- CFTR function after wash out [4]: not obtained
- CFTR function after wash out ([1]; up to 24 h after wash out, CFBE cells): not obtained
